The text below walks through data of patent publication EP0227818B1, “ANTIGLAUCOMA COMPOSITIONS” (SCHERING CORPORATION, priority 1985, dated 1987).

In data set [1] the test system is intraocular pressure (IOP). The experiment in a line: Intraocular pressure (IOP) lowering in conscious normotensive rabbits after topical dosing, applanation tonometer. Type of data set: in vivo, Male New Zealand white rabbits. Conditions: 0.5% Timolol alone (plus 50 µl vehicle 1), 50 µl topical to left eye, mean ± SEM; statistically significant vs placebo; concentration giving maximum IOP reduction with timolol alone. On the procedure: Food and water were allowed ad libitum. The rabbits were maintained on a light cycle of 12 h darkness (7 PM to 7 AM) followed by 12 h of light. Animals were conditioned to their handlers and the laboratory setting and IOP measurements for at least one 4 h period before being used to study drug effects.
Rabbits were restrained in a cloth sack approximately 2 min prior to IOP determinations. The left lower eyelid was retracted forming a pouch and 1 drop of the local anesthetic proparacaine (0.05% w/v) was irrigated over the cornea. The eyelid was then held closed over the eye about 1 min. IOP was usually monitored 1 h before dosing, at zero time (immediately prior to dosing), and hourly for the next 4 h. Only rabbits with IOP's of 18-23 mmHg and showing no sign of ocular irritation were used in drug studies.
IOP, in mmHg, was determined in triplicate with a McKag-Marg applanation tonometer and the average reading was recorded. The tonometer had previously been calibrated against direct manometric determination of IOP in living eyes of barbiturate-anesthetized rabbits. Internal calibration signals of the McKay-Marg unit were checked after every eight readings or less. […]
The data (mean I SEM) were analyzed using analysis of variance and Dunnett's or Duncan's comparisons and are expressed as peak changes in IOP. […]

Data set [2] in a line: Gross examination of cornea, iris, conjunctivae and pupil diameter for ocular irritation in the IOP study. Type of data set: in vivo, Male New Zealand white rabbits. Conditions: rabbits, topical ocular dosing.
Text: Prior to drug administration and at each IOP determination, the cornea, iris, and conjunctivae were grossly examined for signs of irritation. Pupil diameter was also examined but detailed measurements were not made.

`CC(C)(C)NC[C@H](O)COc1nsnc1N1CCOCC1` [Timolol, 1-[(1,1-dimethylethyl)amino]-3-[(4-morpholinyl-1,2,5-thiadiazol-3-yl)-oxy]-2-propanol]: the “Peak Change in IOP” value in data set [1] is -3.0±0.4^(1) mmHg. For the same compound, the “signs of acute ocular irritation” value in data set [2] (all concentrations tested) is “None”. Besides, in data set [2] (examined, detailed measurements not made), the Pupillary diameters result is recorded as “not affected”.
